Results as given in patent publication US11980609B2, “LPA receptor antagonists and uses thereof” (Gilead Sciences, Inc., priority 2021, dated 2024).

Biological target: T1, human LPAR1 (Homo sapiens, UniProt Q92633)
T1 construct: host or cells: CHO-K1
Assay: LPAR1 intracellular calcium mobilization assay (antagonist mode)
Type: cell-based
Settings: CHO-K1 EDG2 cells expressing human LPAR1; 60 min pre-incubation with compound (0.5 nM to 10 μM), then LPA 18:2 challenge; FLIPR Tetra calcium signal
Method: In vitro LPAR1 activity was measured in an intracellular calcium mobilization assay.
CHO-K1 EDG2 cells (DiscoverX cat #93-0644C2) expressing human LPAR1 (NM_001401.3) were seeded in a total volume of 25 μL of Dulbecco's Modification of Eagle's Medium (DMEM) with 10% Fetal Bovine Serum, 1× PenStrepGlutamine, 300 μg/ml Hygromycin, and 800 μg/ml G418 into 384-well tissue culture plate (Grenier #781091) at 15,000 cells/well and incubated at 37° C. overnight. Prior to testing, 25 μL Calcium Loading Dye Component A (FLIPR Calcium 6 Assay Kit Molecular Device #R8190) and 2.5 mM Probenecid (Invitrogen #P36400, prepared fresh) in Hank's Balanced Salt Solution (Corning #21-023-CV), 20 mM HEPES (Corning #25-060-CI), 0.1% Bovine Serum Albumin (Sigma-Aldrich #A7906-500G) was add to the cells for 60 minutes at 37° C.
Agonist dose curves of LPA 18:2 (Avanti Polar Lipids cat #857138, 0.5 nM to 10 μM) were recorded to determine the LPA 18:2 EC80 for subsequent antagonist assays. For agonist dose curves, cells were removed from the incubator 2 hours after dye loading and transferred to the FLIPR Tetra instrument (Molecular Devices, San Jose, CA). Calcium mobilization was monitored for 5 min and 10 μL 6×LPA in HBSS/20 mM Hepes/0.1% bovine serum albumin (BSA) was added to the cells 5 seconds into the assay.
To determine the LPAR1 antagonist activity of test compounds, cells were pre-incubated with test compound at a dose range of 0.5 nM to 10 μM, followed by LPA at […] concentration (100 nM). After dye loading, cells were removed from the incubator and 0.3 μL of 200× antagonist was added. Cells were incubated for 60 minutes at 37° C. Antagonist activity was measured on a FLIPR Tetra. Calcium mobilization was monitored for 3.5 minutes and 10 μL 6×EC80 LPA in HBSS, 20 mM HEPES, and 0.1% BSA was added to the cells 5 seconds into the assay. Signal amplitude (Maximum minus minimum) values were plotted against log10 of antagonist concentration using Dose Response Tool (Gilead Sciences Inc.) to determine EC50.
To assess the antagonistic potential of exemplified compounds EC50 values were determined for Compounds 1 to 55 in the LPAR1 calcium mobilization assay. The compound numbers correspond to the compound numbers in Examples 1 to 35. N/A=not available.

T1 sequence (Q92633 whole entry): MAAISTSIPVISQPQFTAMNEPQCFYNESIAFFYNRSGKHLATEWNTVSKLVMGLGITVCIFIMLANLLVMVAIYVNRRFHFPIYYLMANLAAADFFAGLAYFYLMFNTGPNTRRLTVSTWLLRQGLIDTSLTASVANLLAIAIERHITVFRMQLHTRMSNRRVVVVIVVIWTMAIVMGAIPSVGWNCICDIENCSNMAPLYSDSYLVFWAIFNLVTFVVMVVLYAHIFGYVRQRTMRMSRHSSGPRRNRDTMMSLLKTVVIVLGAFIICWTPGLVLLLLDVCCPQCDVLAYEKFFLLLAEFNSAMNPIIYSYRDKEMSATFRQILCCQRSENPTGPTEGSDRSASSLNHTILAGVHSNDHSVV

Compound | EC50 [nM]
C[C@@H](OC(=O)Nc1c(-c2ccc3c(n2)OCC(=O)N3)cnn1C)c1cc(F)cnc1Cl [Compound 15, (R)-1-(2-chloro-5-fluoropyridin-3-yl)ethyl (1-methyl-4-(2-oxo-2,3-dihydro-1H-pyrido[2,3-b][1,4]oxazin-6-yl)-1H-pyrazol-5-yl)carbamate] | 25.7
C[C@@H](OC(=O)Nc1c(-c2ncc(NC(=O)C34CC(F)(C3)C4)cc2F)cnn1C)c1cc(F)cnc1F [Compound 16, (R)-1-(2,5-difluoropyridin-3-yl)ethyl (4-(3-fluoro-5-(3-fluorobicyclo[1.1.1]pentane-1-carboxamido)pyridin-2-yl)-1-methyl-1H-pyrazol-5-yl)carbamate] | 15.8
C[C@@H](OC(=O)Nc1c(-c2ncc(NC(=O)C3(C#N)CC3)cc2F)cnn1C)c1cc(F)cnc1F [Compound 17, (R)-1-(2,5-difluoropyridin-3-yl)ethyl (4-(5-(1-cyanocyclopropane-1-carboxamido)-3-fluoropyridin-2-yl)-1-methyl-1H-pyrazol-5-yl)carbamate] | 19.7
C[C@@H](OC(=O)Nc1c(-c2ncc(NC(=O)c3cnc(C(F)F)nc3)cc2F)cnn1C)c1cc(F)cnc1F [Compound 18, (R)-1-(2,5-difluoropyridin-3-yl)ethyl (4-(5-(2-(difluoromethyl)pyrimidine-5-carboxamido)-3-fluoropyridin-2-yl)-1-methyl-1H-pyrazol-5-yl)carbamate] | 36.1
C[C@@H](OC(=O)Nc1c(-c2ccc(NC(=O)C3(C#N)CC3)cn2)cnn1C)c1cc(F)cnc1F [Compound 19, (R)-1-(2,5-difluoropyridin-3-yl)ethyl (4-(5-(1-cyanocyclopropane-1-carboxamido)pyridin-2-yl)-1-methyl-1H-pyrazol-5-yl)carbamate] | 763
C[C@@H](OC(=O)Nc1c(-c2ccc(NS(C)(=O)=O)cn2)cnn1C)c1cccnc1Cl [Compound 20, (R)-1-(2-chloropyridin-3-yl)ethyl (1-methyl-4-(5-(methylsulfonamido)pyridin-2-yl)-1H-pyrazol-5-yl)carbamate] | 216
C[C@@H](OC(=O)Nc1c(-c2ncc(NC(=O)C3(C#N)CC3)cn2)cnn1C)c1cc(F)cnc1F [Compound 21, (R)-1-(2,5-difluoropyridin-3-yl)ethyl (4-(5-(1-cyanocyclopropane-1-carboxamido)pyrimidin-2-yl)-1-methyl-1H-pyrazol-5-yl)carbamate] | 81.5
C[C@@H](OC(=O)Nc1c(-c2ncc(NC(=O)c3cnc(C(F)(F)F)nc3)cn2)cnn1C)c1cc(F)cnc1F [Compound 22, (R)-1-(2,5-difluoropyridin-3-yl)ethyl (1-methyl-4-(5-(2-(trifluoromethyl)pyrimidine-5-carboxamido)pyrimidin-2-yl)-1H-pyrazol-5-yl)carbamate] | 8.9
C[C@@H](OC(=O)Nc1c(-c2ncc(NC(=O)C3(C#N)CC3)cn2)cnn1C)c1cc(F)cnc1Cl [Compound 23, (R)-1-(2-chloro-5-fluoropyridin-3-yl)ethyl (4-(5-(1-cyanocyclopropane-1-carboxamido)pyrimidin-2-yl)-1-methyl-1H-pyrazol-5-yl)carbamate] | 16.8
C[C@@H](OC(=O)Nc1c(-c2ncc(NC(=O)c3cnc(C(F)F)nc3)cn2)cnn1C)c1cc(F)cnc1F [Compound 24, (R)-1-(2,5-difluoropyridin-3-yl)ethyl (4-(5-(2-(difluoromethyl)pyrimidine-5-carboxamido)pyrimidin-2-yl)-1-methyl-1H-pyrazol-5-yl)carbamate] | 26.8
C[C@@H](OC(=O)Nc1c(-c2ncc(NC(=O)C3(C(F)F)CC3)cn2)cnn1C)c1cc(F)cnc1Cl [Compound 25, (R)-1-(2-chloro-5-fluoropyridin-3-yl)ethyl (4-(5-(1-(difluoromethyl)cyclopropane-1-carboxamido)pyrimidin-2-yl)-1-methyl-1H-pyrazol-5-yl)carbamate] | 60.5
C[C@@H](OC(=O)Nc1c(-c2ncc(NC(=O)c3ccc(Cl)nc3)cn2)cnn1C)c1cc(F)cnc1F [Compound 26, (R)-1-(2,5-difluoropyridin-3-yl)ethyl (4-(5-(6-chloronicotinamido)pyrimidin-2-yl)-1-methyl-1H-pyrazol-5-yl)carbamate] | 20.6
C[C@@H](OC(=O)Nc1c(-c2ncc(NC(=O)c3ccc(C(F)(F)F)nc3)cn2)cnn1C)c1cc(F)cnc1F [Compound 27, (R)-1-(2,5-difluoropyridin-3-yl)ethyl (1-methyl-4-(5-(6-(trifluoromethyl)nicotinamido)pyrimidin-2-yl)-1H-pyrazol-5-yl)carbamate] | 28
C[C@@H](OC(=O)Nc1c(-c2ncc(NC(=O)C3(C(F)F)CC3)cn2)cnn1C)c1cc(F)cnc1F [Compound 28, (R)-1-(2,5-difluoropyridin-3-yl)ethyl (4-(5-(1-(difluoromethyl)cyclopropane-1-carboxamido)pyrimidin-2-yl)-1-methyl-1H-pyrazol-5-yl)carbamate] | 216
C[C@@H](OC(=O)Nc1c(-c2ncc(NC(=O)[C@@H]3C[C@H]3C(F)(F)F)cn2)cnn1C)c1cc(F)cnc1F [Compound 29, (R)-1-(2,5-difluoropyridin-3-yl)ethyl (1-methyl-4-(5-((1R,2R)-2-(trifluoromethyl)cyclopropane-1-carboxamido)pyrimidin-2-yl)-1H-pyrazol-5-yl)carbamate] | < 4.6
C[C@@H](OC(=O)Nc1c(-c2ncc(NC(=O)C34CC(F)(C3)C4)cn2)cnn1C)c1cc(F)cnc1F [Compound 30, (R)-1-(2,5-difluoropyridin-3-yl)ethyl (4-(5-(3-fluorobicyclo[1.1.1]pentane-1-carboxamido)pyrimidin-2-yl)-1-methyl-1H-pyrazol-5-yl)carbamate] | 36.2
C[C@@H](OC(=O)Nc1c(-c2ncc(NC(=O)C34CC(C(F)F)(C3)C4)cn2)cnn1C)c1cc(F)cnc1F [Compound 31, (R)-1-(2,5-difluoropyridin-3-yl)ethyl (4-(5-(3-(difluoromethyl)bicyclo[1.1.1]pentane-1-carboxamido)pyrimidin-2-yl)-1-methyl-1H-pyrazol-5-yl)carbamate] | 23.7
C[C@@H](OC(=O)Nc1c(-c2ncc(NC(=O)[C@@H]3C[C@H]3C(F)(F)F)cn2)cnn1C)c1cccnc1Cl [Compound 32, (R)-1-(2-chloropyridin-3-yl)ethyl (1-methyl-4-(5-((1R,2R)-2-(trifluoromethyl)cyclopropane-1-carboxamido)pyrimidin-2-yl)-1H-pyrazol-5-yl)carbamate] | < 4.6
C[C@@H](OC(=O)Nc1c(-c2ncc(NC(=O)[C@@H]3C[C@H]3c3cccnc3)cn2)cnn1C)c1cc(F)cnc1F [Compound 33, (R)-1-(2,5-difluoropyridin-3-yl)ethyl (1-methyl-4-(5-((1R,2R)-2-(pyridin-3-yl)cyclopropane-1-carboxamido)pyrimidin-2-yl)-1H-pyrazol-5-yl)carbamate] | 20.3
C[C@@H](OC(=O)Nc1c(-c2ncc(NC(=O)[C@@H]3C[C@H]3C(F)F)cn2)cnn1C)c1cc(F)cnc1F [Compound 34, (R)-1-(2,5-difluoropyridin-3-yl)ethyl (4-(5-((1R,2R)-2-(difluoromethyl)cyclopropane-1-carboxamido)pyrimidin-2-yl)-1-methyl-1H-pyrazol-5-yl)carbamate] | 11.6
C[C@@H](OC(=O)Nc1c(-c2ncc(NC(=O)C3(C)CC(F)(F)C3)cn2)cnn1C)c1cc(F)cnc1F [Compound 35, (R)-1-(2,5-difluoropyridin-3-yl)ethyl (4-(5-(3,3-difluoro-1-methylcyclobutane-1-carboxamido)pyrimidin-2-yl)-1-methyl-1H-pyrazol-5-yl)carbamate] | 14
C[C@@H](OC(=O)Nc1c(-c2ncc(NC(=O)C3CC(F)(F)C3)cn2)cnn1C)c1cc(F)cnc1F [Compound 36, (R)-1-(2,5-difluoropyridin-3-yl)ethyl (4-(5-(3,3-difluorocyclobutane-1-carboxamido)pyrimidin-2-yl)-1-methyl-1H-pyrazol-5-yl)carbamate] | 18.6
C[C@@H](OC(=O)Nc1c(-c2ncc(NC(=O)C3(C(F)F)CC(F)(F)C3)cn2)cnn1C)c1cc(F)cnc1F [Compound 37, (R)-1-(2,5-difluoropyridin-3-yl)ethyl (4-(5-(1-(difluoromethyl)-3,3-difluorocyclobutane-1-carboxamido)pyrimidin-2-yl)-1-methyl-1H-pyrazol-5-yl)carbamate] | 7.9
